Like-named read-outs stand apart in the source and are kept apart here.
Tests used:
[1] = test system: microtubules in Hela cells; assay: Immunofluorescence staining of microtubules and spindles in Hela cells; format: cell-based, human; conditions: for effect on mitotic spindles: Hela metaphase cells, IC50, 24 h; for effect on interphase cellular microtubules: Hela, immunofluorescence, IC80
Description: (§1) Then, cells were fixed in 4% paraformaldehyde at 4 °C for 20 min and permeabilized by 0.3% (v/v) Triton X-100 for 10 min. Nonspecific binding sites on the coverslips were blocked by incubating them with 5% FBS for 1 h. To stain the microtubules, cells were firstly incubated with 1:100 mouse anti-α-tubulin monoclonal IgG for 1 h and then with 1:200 goat anti-mouse […] for 1 h. Cells were then incubated with […] Atto 390 phalloidin for 45 min to stain the actin filaments and 20 μg/mL propidium iodide for 30 min to stain the cell nucleus/chromosomes. After washing steps, the coverslips were mounted by mowiol. Microtubules, actin filaments and cell nucleus/chromosomes were observed and analyzed using the Keyence BZ-9000 microscope as described before.

[2] = test system: Hela, MCF-7 and U2OS cells; assay: MTT cytotoxicity, summary over three cell lines; format: cell-based; conditions: Homo sapiens, MCF-7, U2OS
Description: (§2) The anti-proliferative effects of alkaloids were assessed using the MTT assay, as previously described. In brief, 1 × 10^4 cells were seeded in 96-well-plates and incubated with serial dilutions of alkaloids for 48 h (Hela, U2OS) and 72 h (MCF-7). MTT solution was then added and incubated for 2 h. After the addition of DMSO, the plate was read at 570 nm using the Tecan infinite M200 Pro (Tecan, Crailsheim, Germany).
(§3) All experiments were performed at least three times. Data are presented as the mean ± standard deviation. Statistical comparison between controls and different treatments were performed by an unpaired Student’s t-test. Significance was considered at p < 0.05.

U2OS cells = assay: MTT cytotoxicity assay, U2OS; format: cell-based, human; conditions: 48 h, mean ± SD
Description: as §2, §3

[3] = target: T1, tubulin plus microtubule-associated proteins (MAPs) from porcine brains (Sus scrofa, UniProt P02550+P02554); assay: In vitro tubulin polymerization assay (light scattering at 360 nm); format: biochemical; conditions: for IC50: 5.6 mg/mL tubulin-MAPs, 37 °C, 40 min, read-out: IC50 inhibition of tubulin polymerization in vitro; for effect on tubulin polymerization in vitro: tubulin-MAPs
T1 construct: prepared from porcine brains (freshly obtained from a local slaughter house) by two cycles of polymerization and depolymerization; from tissue; host or cells: porcine brain
T1 sequence (P02550 whole entry): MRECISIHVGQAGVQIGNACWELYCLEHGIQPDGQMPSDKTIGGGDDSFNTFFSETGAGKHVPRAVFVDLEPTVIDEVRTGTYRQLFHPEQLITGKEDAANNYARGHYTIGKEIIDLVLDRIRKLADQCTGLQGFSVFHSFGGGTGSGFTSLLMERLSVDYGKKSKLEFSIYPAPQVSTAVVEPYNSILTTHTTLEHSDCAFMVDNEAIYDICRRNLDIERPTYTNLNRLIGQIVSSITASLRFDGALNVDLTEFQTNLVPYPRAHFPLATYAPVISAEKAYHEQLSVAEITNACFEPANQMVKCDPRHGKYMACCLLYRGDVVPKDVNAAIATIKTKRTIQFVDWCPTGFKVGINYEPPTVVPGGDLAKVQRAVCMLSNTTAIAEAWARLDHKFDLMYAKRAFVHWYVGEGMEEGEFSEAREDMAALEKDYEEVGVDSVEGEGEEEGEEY
T1 sequence (P02554 whole entry): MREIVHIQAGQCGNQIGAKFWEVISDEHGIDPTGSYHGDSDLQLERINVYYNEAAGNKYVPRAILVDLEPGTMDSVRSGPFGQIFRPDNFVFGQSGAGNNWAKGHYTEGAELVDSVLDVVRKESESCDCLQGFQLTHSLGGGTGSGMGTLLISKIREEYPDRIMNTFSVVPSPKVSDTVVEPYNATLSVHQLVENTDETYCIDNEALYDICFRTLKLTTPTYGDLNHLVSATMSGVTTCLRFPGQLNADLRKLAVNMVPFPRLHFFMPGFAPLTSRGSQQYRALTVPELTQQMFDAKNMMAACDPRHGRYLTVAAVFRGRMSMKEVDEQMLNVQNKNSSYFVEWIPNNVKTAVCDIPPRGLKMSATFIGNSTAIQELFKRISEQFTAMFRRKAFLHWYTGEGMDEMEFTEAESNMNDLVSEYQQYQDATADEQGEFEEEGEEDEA
Description: Tubulin plus microtubule-associated proteins (MAPs) were prepared from porcine brains (freshly obtained from a local slaughter house) by two cycles of polymerization and depolymerization according to a standard protocol. […] The rate and extent of the polymerization reaction were monitored by light scattering at 360 nm using Tecan infinite M200 Pro.
as §3

[4] = test system: actin filaments in Hela cells; assay: Imaging of actin filaments in Hela cells (actin-RFP, immunofluorescence); format: cell-based, human; conditions: high concentration (IC80)
Description: as §1
Hela cells (2 × 10^4) were seeded in 24-well plates and mixed with CellLight® Actin-RFP BacMam 2.0, which is a fusion construct of human actin and TagRFP, providing an accurate and specific targeting to cellular actin filaments. After 16 h of incubation, 200 μL of different concentrations of alkaloids (IC80, IC50) were added into each well, and the cells were analyzed as described above (Section 4.4).

[5] = test system: microtubules in U2OS cells; assay: Imaging of microtubule network in α-tubulin-GFP U2OS cells; format: cell-based, human
Description: α-Tubulin-GFP U2OS cells (1 × 10^5) were seeded in 24-well plates and grown for 24 h. […] The images were analyzed using BZ-II Analyzer software (version 2.1, Keyence, Neu-Isenburg, Germany).

MCF-7 cells = assay: MTT cytotoxicity assay, MCF-7; format: cell-based, human; conditions: mean ± SD
Description: as §2, §3

Hela cells [6] = assay: Cell cycle analysis by flow cytometry (propidium iodide); format: cell-based, human
Description: Cell cycle analysis was carried out as established in our laboratory. Hela cells (5 × 10^5) were seeded in 6-well plates and treated with different concentrations of alkaloids for 24 h. Cells were then collected, centrifuged and fixed in 70% ice-cold ethanol for at least 8 h. After the washing steps, cells were treated with 0.2 mg/mL RNase A for 30 min at 37 °C and then stained with 0.1 mg/mL propidium iodide. Samples were analyzed using a FACScan flow cytometer (Becton Dickinson, Heidelberg, Germany). Data were analyzed using Cell Quest™ Pro software (Becton Dickinson) and Microsoft Excel 2013 (Microsoft Corporation, Redmond, WA, USA).

Hela cells [7] = assay: MTT cytotoxicity assay, Hela; format: cell-based, human; conditions: 48 h, mean ± SD
Description: as §2, §3

[8] = read-out: IC50 values, range over three cell lines
[9] = U2OS α-tubulin-GFP, IC80 and IC50, 2-48 h
[10] = read-out: IC50 values, range over all three cell lines

SMILES	effect on mitotic spindles [1]	IC50 [2, 8]	IC50 (U2OS cells; Homo sapiens, U2OS)	IC50 ([3]; mean ± SD)	effect on actin filaments [4]	effect on microtubule network [5, 9]	IC50 (MCF-7 cells; Homo sapiens, MCF7, 72 h)	effect on cell cycle (Hela cells [6]; 24 h)	IC50 (Hela cells [7]; Homo sapiens, HeLa)	IC50 [3]	also measured
COc1ccc2c(c[n+](C)c3c4cc5c(cc4ccc23)OCO5)c1OC [Chelerythrine, chelerythrine]	abnormal, but still bipolar spindles	920 to 7630 nM	2.88 ± 0.76 µM	206 ± 4.2 µM	significant reduction of actin filament mass	displayed similar effects as sanguinarine	7.63 ± 3.43 µM	did not change the proportion of mitotic cells	3850 ± 2100 nM		effect on interphase cellular microtubules [1]: significantly reduced the mass of microtubules
CN1Cc2c(ccc3c2OCO3)[C@@H]2[C@H]1c1cc3c(cc1C[C@@H]2O)OCO3 [Chelidonine, chelidonine]	multipolar spindles with chromosome congression failure	920 to 7630 nM	3.86 ± 1.99 µM	34.5 ± 9.47 µM	significant reduction of actin filament mass		3.85 ± 0.1 µM		1130 ± 370 nM		effect on microtubule network [5]: significantly decreased cellular microtubule mass; G2/M population (Hela cells [6]; 2.5 μM, 24 h): 88.27% ± 0.99%
COc1cc2c(c(OC)c1OC)-c1ccc(OC)c(=O)cc1[C@@H](NC(C)=O)CC2 [Colchicine, colchicine]	completely depolymerized spindle				No apparent changes of actin filaments	reduced the mass of the microtubule network					G2/M population (Hela cells [6]; 0.1 μM, 24 h): 89.66% ± 2.04%
COC(=O)C[C@](O)(CCCC(C)(C)O)C(=O)O[C@@H]1C(OC)=C[C@]23CCCN2CCc2cc4c(cc2[C@H]13)OCO4 [Homoharringtonine, homoharringtonine]	did not affect mitotic spindles		0.003 ± 0.00167 µM		No apparent changes of actin filaments	No obvious changes on the cellular microtubule network	0.00087 ± 0.00045 µM	had no impact on the cell cycle	9.03 ± 0.38 nM	> 1000 µM	IC50 [2, 10]: 0.87 to 9.03 nM; effect on tubulin polymerization in vitro [3]: did not affect tubulin polymerization
C/C1=C/C(=O)O[C@@H]2C[C@@H](CC[C@H](C)/C=C\CC1)O[C@@](O)([C@@H]1CSC(=O)N1)C2 [Latrunculin B, latrunculin B]					extensive depolymerization of the actin network	immediately changed the cell morphology					IC50 (U2OS cells): 5.48 ± 0.68 µM; IC50 (MCF-7 cells; 72 h): 36.8 ± 2.25 µM; G2/M population (Hela cells [6]; 7 μM, 24 h): 80.05% ± 11.89%; IC50 (Hela cells [7]): 7130 ± 610 nM
COc1ccc2c(c1OC)C(=O)O[C@@H]2[C@H]1c2c(cc3c(c2OC)OCO3)CCN1C [Noscapine, noscapine]	multipolar spindles with chromosome congression failure		60.9 ± 12.2 µM		No apparent changes of actin filaments	remarkably depolymerized the microtubule network and reduced its mass	35.2 ± 8.18 µM		16800 ± 9790 nM	> 1000 µM	G2/M population (Hela cells [6]; 80 μM, 24 h): 73.42% ± 8.31%
CC(=O)O[C@H]1C(=O)[C@@]2(C)[C@H]([C@H](OC(=O)c3ccccc3)[C@]3(O)C[C@H](OC(=O)[C@H](O)[C@@H](NC(=O)c4ccccc4)c4ccccc4)C(C)=C1C3(C)C)[C@]1(OC(C)=O)CO[C@@H]1C[C@@H]2O [Paclitaxel, paclitaxel]	aberrant, but still bipolar spindles		0.23 ± 0.1 µM	38.2 ± 3.33 µM	No apparent changes of actin filaments	promoted the polymerization of microtubules	1.05 ± 0.43 µM		0.08 ± 0.1 nM		G2/M population (Hela cells [6]; 0.1 μM, 24 h): 80.37% ± 5.36%
CN1CCc2cc3c(cc2C(=O)Cc2ccc4c(c2C1)OCO4)OCO3 [Protopine, protopine]	thickened spindle arrays		62.4 ± 9.9 µM		No apparent changes of actin filaments	notably enhanced the assembly of the microtubule network	67.3 ± 9.06 µM		27500 ± 11800 nM	> 1000 µM	effect on tubulin polymerization in vitro [3]: did not affect tubulin polymerization; G2/M population (Hela cells [6]; 250 μM, 24 h): 54.35% ± 11.26%; G2/M population (Hela cells [6]; 250.9 μM): 54.35% ± 11.26%
C[n+]1cc2c3c(ccc2c2ccc4cc5c(cc4c21)OCO5)OCO3 [Sanguinarine, sanguinarine]	had no impact on mitotic spindles	920 to 7630 nM	0.92 ± 0.53 µM	48.4 ± 3.73 µM	significant reduction of actin filament mass		1.24 ± 0.21 µM	did not change the proportion of mitotic cells	1030 ± 40 nM		effect on interphase cellular microtubules [1]: significantly reduced the mass of microtubules; effect on microtubule network [5]: disrupted microtubule distribution and altered their morphology
CC[C@]1(O)C[C@@H]2CN(CCc3c([nH]c4ccccc34)[C@@](C(=O)OC)(c3cc4c(cc3OC)N(C)[C@H]3[C@@](O)(C(=O)OC)[C@H](OC(C)=O)[C@]5(CC)C=CCN6CC[C@]43[C@@H]65)C2)C1 [Vinblastine, vinblastine]	depolymerized bipolar spindles		0.0001 ± 5e-05 µM	1.42 ± 0.05 µM	No apparent changes of actin filaments	microtubules were extensively depolymerized and tubulin paracrystals were formed	7e-05 ± 5e-05 µM		0.02 ± 0.01 nM		IC50 [2, 10]: 0.02 to 0.1 nM; G2/M population (Hela cells [6]; 10 nM, 24 h): 78.04% ± 14.78%

Source: publication PMC6273799, “The Interference of Selected Cytotoxic Alkaloids with the Cytoskeleton: An Insight into Their Modes of Action” (Molecules, 2016)
